In paper PMC4106271 (Journal of Medicinal Chemistry, 2014):

Target: T1, α1β2γ2S GABAA receptors (Homo sapiens, UniProt P14867+P47870)
T1 construct: expressed in transfected cells; host or cells: Xenopus laevis oocytes injected with cRNA (pCMV cDNA templates)
Experiment: Two-microelectrode voltage clamp, IGABA modulation, α1β2γ2S
Assay type: cell-based
Conditions: 100 μM compound, GABA EC3–7, Xenopus laevis oocytes, mean ± SEM
Procedure: Preparation of stage V–VI oocytes from X. laevis and synthesis of capped runoff poly(A) cRNA transcripts from linearized cDNA templates (pCMV vector) was performed as previously described.[49] […] Follicle membranes from isolated oocytes were enzymatically digested with 2 mg/mL collagenase (type 1A, Sigma–Aldrich, Vienna, Austria).
Selected oocytes were injected with 10–50 nL of DEPC-treated water (diethyl pyrocarbonate, Sigma, Vienna, Austria) containing the different GABAA cRNAs at a concentration of approximately 300–3000 pg·nL^–1·subunit^–1.
To ensure expression of the γ2S subunit in the case of α1/2/3/5β2/3γ2S receptors, cRNAs were mixed in a ratio of 1:1:10. […] The amount of cRNAs was determined by means of a NanoDrop ND-1000 (Kisker-Biotech, Steinfurt, Germany).
Oocytes were stored at +18 °C in modified ND96 solution (90 mM NaCl, 1 mM CaCl2, 1 mM KCl, 1 mM MgCl2·6H2O, and 5 mM HEPES [4-(2-hydroxyethyl)-1-piperazineethanesulfonic acid], pH 7.4, all from Sigma–Aldrich, Vienna, Austria).
Chloride currents through GABAA receptors (IGABA) were measured at room temperature (+21 ± 1 °C) by means of a two-microelectrode voltage clamp technique making use of a Turbo TEC-05X amplifier (npi electronic, Tamm, Germany). IGABA were elicited at a holding potential of –70 mV. Data acquisition was carried out by means of an Axon Digidata 1322A interface using pCLAMP v.10 (Molecular Devices, Sunnyvale, CA). The modified ND96 solution was used as bath solution.
GABA and the studied derivatives were applied by means of the ScreeningTool (npi electronic, Tamm, Germany) fast perfusion system as described previously.[50] To elicit IGABA, the chamber was perfused with 120 μL of GABA- or compound-containing solution at a volume rate of 300 μL/s.[34] Care was taken to account for possible slow recovery from increasing levels of desensitization in the presence of high drug concentrations. The duration of washout periods was therefore extended from 1.5 min (<10 μM compounds) to 30 min (≥10 μM compounds). Oocytes with maximal current amplitudes >3 μA were discarded to exclude voltage clamp errors.
Stimulation of chloride currents by modulators of the GABAA receptor was measured at a GABA concentration eliciting between 3% and 7% of the maximal current amplitude (EC3–7). The GABA EC3–7 was determined for each oocyte individually. Enhancement of the chloride current was defined as (IGABA+compd/IGABA) – 1, where IGABA+compd is the current response in the presence of a given compound and IGABA is the control GABA current. IGABA-max reflects the maximal IGABA enhancement. Concentration–response curves were generated and the data were fitted by nonlinear regression analysis using Origin Software (OriginLab Corp.). Data were fitted to the equation 1/(1 + (EC50/[compound])^nH), where nH is the Hill coefficient. […] Statistical significance was calculated by paired Student t-test with a confidence interval of <0.05.

T1 sequence (P14867 28-456): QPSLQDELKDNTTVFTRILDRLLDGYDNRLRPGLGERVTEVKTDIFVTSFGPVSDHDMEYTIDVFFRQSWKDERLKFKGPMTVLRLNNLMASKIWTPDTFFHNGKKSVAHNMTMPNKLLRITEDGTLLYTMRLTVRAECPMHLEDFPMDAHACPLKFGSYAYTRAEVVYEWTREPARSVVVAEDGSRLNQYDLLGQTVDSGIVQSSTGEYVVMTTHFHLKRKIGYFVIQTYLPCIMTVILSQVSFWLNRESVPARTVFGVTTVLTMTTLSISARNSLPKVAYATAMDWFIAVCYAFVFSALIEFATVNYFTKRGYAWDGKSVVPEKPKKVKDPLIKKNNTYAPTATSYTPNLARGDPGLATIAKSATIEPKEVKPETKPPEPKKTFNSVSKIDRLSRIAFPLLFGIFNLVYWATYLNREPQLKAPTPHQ
T1 sequence (P47870 26-512): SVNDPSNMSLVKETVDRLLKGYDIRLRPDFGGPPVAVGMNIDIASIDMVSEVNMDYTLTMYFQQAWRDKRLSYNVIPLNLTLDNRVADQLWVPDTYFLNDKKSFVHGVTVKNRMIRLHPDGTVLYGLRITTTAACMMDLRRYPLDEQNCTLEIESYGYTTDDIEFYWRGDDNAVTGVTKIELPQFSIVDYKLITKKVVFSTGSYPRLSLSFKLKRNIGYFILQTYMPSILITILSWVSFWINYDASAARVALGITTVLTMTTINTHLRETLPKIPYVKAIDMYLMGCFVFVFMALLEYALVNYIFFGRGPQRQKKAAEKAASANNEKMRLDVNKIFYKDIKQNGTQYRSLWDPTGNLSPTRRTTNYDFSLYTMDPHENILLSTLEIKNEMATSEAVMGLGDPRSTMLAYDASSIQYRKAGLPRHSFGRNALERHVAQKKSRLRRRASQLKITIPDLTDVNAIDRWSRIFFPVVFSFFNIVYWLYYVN
T1 sequence (P18507 40-467 isoform P18507-1 partner limits assumed): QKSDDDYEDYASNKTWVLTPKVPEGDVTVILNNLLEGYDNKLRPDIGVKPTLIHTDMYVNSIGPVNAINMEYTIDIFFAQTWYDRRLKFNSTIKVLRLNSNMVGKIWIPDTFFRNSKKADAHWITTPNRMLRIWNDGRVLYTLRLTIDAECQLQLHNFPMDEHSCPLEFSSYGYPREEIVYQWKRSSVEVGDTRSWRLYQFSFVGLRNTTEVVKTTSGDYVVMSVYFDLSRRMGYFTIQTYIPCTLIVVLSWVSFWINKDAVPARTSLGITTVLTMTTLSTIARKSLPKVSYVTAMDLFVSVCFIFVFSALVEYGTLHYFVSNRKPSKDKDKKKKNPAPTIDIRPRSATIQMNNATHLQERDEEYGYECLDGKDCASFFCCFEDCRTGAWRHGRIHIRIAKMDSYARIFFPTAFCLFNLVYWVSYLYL

Compound	activation at 100 µM [%]	modulation of IGABA (%)
CSc1ccc(NC(=O)/C=C/C=C/c2ccc3c(c2)OCO3)cc1 [Compound 1]	0	–
COc1cc(NC(=O)/C=C/C=C/c2ccc3c(c2)OCO3)cc(OC)c1OC [Compound 2]	10	–
O=C(/C=C/C=C/c1ccc2c(c1)OCO2)Nc1c(F)cc(F)cc1F [Compound 3]	5 ± 5	–
CN(C)CCNC(=O)/C=C/C=C/c1ccc2c(c1)OCO2 [Compound 4]	-15	–
COc1ccc(CCNC(=O)/C=C/C=C/c2ccc3c(c2)OCO3)cc1OC [Compound 5]	-2	–
O=C(/C=C/C=C/c1ccc2c(c1)OCO2)Nc1cccnc1 [Compound 6]	-7	–
O=C(/C=C/C=C/c1ccc2c(c1)OCO2)Nc1ccc(Cl)cn1 [Compound 7]	8 ± 7	–
O=C(/C=C/C=C/c1ccc2c(c1)OCO2)NCCCc1ccccc1 [Compound 8]	-8	–
O=C(/C=C/C=C/c1ccc2c(c1)OCO2)Nc1ccccc1O [Compound 9]	0	–
O=C(/C=C/C=C/c1ccc2c(c1)OCO2)Nc1ccc([N+](=O)[O-])cc1O [Compound 10]	1 ± 7	–
CCCCNC(=O)/C=C/C=C/c1ccc2c(c1)OCO2 [Compound 11]	51 ± 11	–
O=C(/C=C/C=C/c1ccc2c(c1)OCO2)NCCC(c1ccccc1)c1ccccc1 [Compound 12]	-6	–
O=C(/C=C/C=C/c1ccc2c(c1)OCO2)NC1CCCC1 [Compound 13]	33 ± 17	–
O=C(/C=C/C=C/c1ccc2c(c1)OCO2)NCc1ccccc1 [Compound 14]	0	–
CCCCCCCCCCNC(=O)/C=C/C=C/c1ccc2c(c1)OCO2 [Compound 15]	-1	–
O=C(/C=C/C=C/c1ccc2c(c1)OCO2)NC12CC3CC(CC(C3)C1)C2 [Compound 16]	-6	–
O=C(/C=C/c1ccc2c(c1)OCO2)N1CCCCC1 [Compound 17]	79 ± 8	–
CC(C)N(C(=O)/C=C/c1ccc2c(c1)OCO2)C(C)C [Compound 18]	66 ± 30	–
CN(C)C(=O)/C=C/C=C/c1ccc2c(c1)OCO2 [Compound 20]	61 ± 28	–
CCCCCCN(CCCCCC)C(=O)/C=C/C=C/c1ccc2c(c1)OCO2 [Compound 26]	0	–
O=C(/C=C/C=C/c1ccc2c(c1)OCO2)N(C1CCCCC1)C1CCCCC1 [Compound 27]	13 ± 13	–
O=C(/C=C/C=C/c1ccc2c(c1)OCO2)N1CCOCC1 [Compound 29]	0	–
CN1CCN(C(=O)/C=C/C=C/c2ccc3c(c2)OCO3)CC1 [Compound 31]	-20	–
CCN1CCN(C(=O)/C=C/C=C/c2ccc3c(c2)OCO3)CC1 [Compound 32]	-5	–
O=C(/C=C/C=C/c1ccc2c(c1)OCO2)N1CCCC(O)C1 (centres unmarked) [Compound 36]	33 ± 9	–
O=C(/C=C/C=C/c1ccc2c(c1)OCO2)N1CCC(O)CC1 [Compound 37]	26 ± 14	–
O=C(/C=C/C=C/c1ccc2c(c1)OCO2)N1CCN(CCOCCO)CC1 [Compound 40]	12 ± 8	–

Compound	activation at 100 µM [%]	modulation of IGABA (%)
COc1ccccc1N1CCN(C(=O)/C=C/C=C/c2ccc3c(c2)OCO3)CC1 [Compound 41]	5 ± 5	–
O=C(/C=C/C=C/c1ccc2c(c1)OCO2)N1CCN(Cc2ccccc2)CC1 [Compound 42]	48 ± 12	–
S=C(/C=C/C=C/c1ccc2c(c1)OCO2)N1CCCCC1 [Compound 44]	17 ± 17	–
C(/C=C/c1ccc2c(c1)OCO2)=C\CN1CCCCC1 [Compound 45]	-16	–
O=C(c1ccc(-c2ccc3c(c2)OCO3)cc1)N1CCCCC1 [Compound 46]	42	42 ± 1
CCCCN(CCCC)C(=O)c1ccc(-c2ccc3c(c2)OCO3)cc1 [Compound 48]	49 ± 7	–
CC(C)N(C(=O)c1ccc(-c2ccc3c(c2)OCO3)cc1)C(C)C [Compound 49]	30 ± 15	–
CCCN(CCC)C(=O)c1cccc(-c2ccc3c(c2)OCO3)c1 [Compound 51, 3-(Benzo[d][1,3]dioxol-5-yl)-N,N-dipropylbenzamide]	280	280 ± 52
CCCCN(CCCC)C(=O)c1cccc(-c2ccc3c(c2)OCO3)c1 [Compound 52]	63 ± 12	–
O=C(c1ccccc1-c1ccc2c(c1)OCO2)N1CCCCC1 [Compound 54]	34 ± 8	–
CCCN(CCC)C(=O)c1ccccc1-c1ccc2c(c1)OCO2 [Compound 55]	79 ± 24	–
CC(C)N(C(=O)c1ccccc1-c1ccc2c(c1)OCO2)C(C)C [Compound 57]	15 ± 15	–
O=C(c1ccc(-c2ccc3c(c2)OCO3)s1)N1CCCCC1 [Compound 58]	-5	–
CCCCN(CCCC)C(=O)c1ccc(-c2ccc3c(c2)OCO3)s1 [Compound 60]	51 ± 21	–
CC(C)N(C(=O)c1ccc(-c2ccc3c(c2)OCO3)s1)C(C)C [Compound 61]	11 ± 2	–
O=C(c1cccc2c(-c3ccc4c(c3)OCO4)cccc12)N1CCCCC1 [Compound 62, [5-(Benzo[d][1,3]dioxol-5-yl)naphthalen-1-yl](piperidin-1-yl)methanone]	13 ± 2	–
CCCN(CCC)C(=O)c1cccc2c(-c3ccc4c(c3)OCO4)cccc12 [Compound 63]	12 ± 4	–
CCCCN(CCCC)C(=O)c1cccc2c(-c3ccc4c(c3)OCO4)cccc12 [Compound 64]	4 ± 4	–
CCCN(CCC)C(=O)/C=C/c1cccc2cc3c(cc12)OCO3 [Compound 66]	67 ± 23	–
CCCCN(CCCC)C(=O)/C=C/c1cccc2cc3c(cc12)OCO3 [Compound 67]	18 ± 9	–
O=C(/C=C/c1ccc2cc3c(cc2c1)OCO3)N1CCCCC1 [Compound 68]	-1	–
CCCN(CCC)C(=O)/C=C/c1ccc2cc3c(cc2c1)OCO3 [Compound 69]	74 ± 1	–
CCCCN(CCCC)C(=O)/C=C/c1ccc2cc3c(cc2c1)OCO3 [Compound 70]	32	32 ± 12
O=C(c1cccc2cc3c(cc12)OCO3)N1CCCCC1 [Compound 71]	32 ± 10	–
CC(C)CN(CC(C)C)C(=O)c1cccc2cc3c(cc12)OCO3 [Compound 74]	60 ± 17	–
O=C(c1ccc2cc3c(cc2c1)OCO3)N1CCCCC1 [Compound 75]	58 ± 29	–

Same assay, conditions: Hill coefficient of concentration–response curve

Compound	nH
CC(C)N(C(=O)/C=C/C=C/c1ccc2c(c1)OCO2)C(C)C [Compound 22]	2.3 ± 0.2
CC1CCN(C(=O)/C=C/C=C/c2ccc3c(c2)OCO3)CC1 [Compound 35]	1.9 ± 0.3
O=C(/C=C/C=C/c1ccc2c(c1)OCO2)N(CC(F)(F)F)CC(F)(F)F [Compound 43]	1.6 ± 0.2
CCCN(CCC)C(=O)c1ccc(-c2ccc3c(c2)OCO3)cc1 [Compound 47]	1.2 ± 0.2
CC(C)N(C(=O)c1cccc(-c2ccc3c(c2)OCO3)c1)C(C)C [Compound 53]	1.5 ± 0.2
CCCCN(CCCC)C(=O)c1ccccc1-c1ccc2c(c1)OCO2 [Compound 56]	1.2 ± 0.0
CCCN(CCC)C(=O)c1cccc2cc3c(cc12)OCO3 [Compound 72]	1.9 ± 0.2
CCCCN(CCCC)C(=O)c1cccc2cc3c(cc12)OCO3 [Compound 73]	2.7 ± 0.2

Same assay, conditions: IGABA enhancement, GABA EC3–7, Xenopus oocytes

Compound	EC50 [µM]
CC(C)N(C(=O)/C=C/C=C/c1ccc2c(c1)OCO2)C(C)C [Compound 22]	86.7 ± 13.9
CC1CCN(C(=O)/C=C/C=C/c2ccc3c(c2)OCO3)CC1 [Compound 35]	67.7 ± 11
O=C(/C=C/C=C/c1ccc2c(c1)OCO2)N(CC(F)(F)F)CC(F)(F)F [Compound 43]	23.1 ± 3.3
CCCN(CCC)C(=O)c1ccc(-c2ccc3c(c2)OCO3)cc1 [Compound 47]	70.8 ± 21.1
CC(C)N(C(=O)c1cccc(-c2ccc3c(c2)OCO3)c1)C(C)C [Compound 53]	55.3 ± 17.6
CCCCN(CCCC)C(=O)c1ccccc1-c1ccc2c(c1)OCO2 [Compound 56]	36.8 ± 2
CCCN(CCC)C(=O)c1cccc2cc3c(cc12)OCO3 [Compound 72]	102 ± 11.2
CCCCN(CCCC)C(=O)c1cccc2cc3c(cc12)OCO3 [Compound 73]	31.8 ± 5.3

Target: T1, α1β2γ2S GABAA receptors
Experiment: not given
Conditions: 100 μM; cited from earlier work

Compound	potentiation of IGABA
O=C(/C=C/C=C/c1ccc2c(c1)OCO2)N1CCCCC1 [piperine, 1-piperoylpiperidine]	226% ± 26%

Same assay, conditions: Hill coefficient; cited from earlier work

Compound	nH
O=C(/C=C/C=C/c1ccc2c(c1)OCO2)N1CCCCC1 [piperine, 1-piperoylpiperidine]	1.5 ± 0.2
